Assays:
Format in all cases: cell-based
human MC4 receptor = biological target: T1, human MC4 receptor (Homo sapiens, UniProt P32245); assay: Human MC4 receptor activation, cAMP production in cells transiently expressing the receptor; details: FreeStyle 293-F cells expressing human MC4 receptor, α-MSH maximum = 100%
T1 construct: expressed in transfected cells; host or cells: FreeStyle 293-F cells (transient, electroporation)
Description: (§1) (1) Construction of Human MC Receptor-Expressing Vector
(§2) A human MC4 receptor gene (GenBank Accession No.: NM_005912.2), a human MC1 receptor gene (GenBank Accession No.: NM_002386.3), or a human MC3 receptor gene (GenBank Accession No.: NM_019888.3) was introduced into an expression vector pcDNA™ 3.1N/V5-His TOPO (registered trademark) (Thermo Fisher Scientific Inc).
(§3) (2) Construction of Cells Transiently Expressing Human MC Receptor
(§4) An expression vector for a human MC4, MC1, or MC3 receptor was introduced into FreeStyle™ 293-F cells (Thermo Fisher Scientific Inc., product number: R790-07). For the introduction, electroporation was employed. That is, 1×10^7 FreeStyle™ 293-F cells were suspended in 80 μL of an Electroporation Buffer (Thermo Fisher Scientific Inc., product number: B201-100), and 20 μg of the expression vector was added thereto. The resultant was put into a cuvette (OC-100 Processing Assembly, MaxCyte, Inc.) and electroporated with MaxCyte STX (registered trademark) (MaxCyte, Inc.). The cells were cultured for a day, suspended in a Cell Banker (registered trademark) 1 (TAKARA BIO INC. or JUJI FIELD Inc., product number: BLC-1), and stored frozen until they were used.
(§5) (3) Measurement of Amount of cAMP Production
(§6) Measurement was carried out by using a LANCE (registered trademark) Ultra cAMP Kit (PerkinElmer, Inc.) in accordance with the attached instructions. That is, after dissolution in DMSO, the test compound (a final concentration of 1 pM to 30 μM) diluted with an assay buffer (Hank's balanced salt solution, 5 mM 4-(2-hydroxyethyl)-1-piperazineethanesulfonic acid (HEPES), 0.5 mM 3-isobutyl-1-methylxanthine (IBMX), 0.1% bovine serum albumin, pH 7.4), or α-MSH (Bachem Inc., a final concentration of 1 pM to 30 μM) was added to OptiPlate-384 (PerkinElmer, Inc.). Furthermore, the suspension of the cells transiently expressing the human MC4, MC1, or MC3 receptor prepared using the assay buffer was added thereto at 1,000 cells/well, and then left to stand at room temperature for about 1 hour. Thereafter, an Eu-cAMP tracer solution and an ULight™-anti-cAMP solution were added thereto, and then the resulting solution was left to stand at room temperature for about 1 hour. The amount of cAMP was calculated using EnVision (registered trademark) (PerkinElmer Inc.).
(§7) For the agonistic activity, the efficacy (EC50 (μM)) was calculated by a non-linear regression method with a Sigmoid-Emax model, by defining the maximum reaction using α-MSH as 100% and the reaction using the vehicle alone as 0%, respectively.

human MC3 receptor = biological target: T2, human MC3 receptor (Homo sapiens, UniProt P41968); assay: Human MC3 receptor activation, cAMP production in cells transiently expressing the receptor; details: FreeStyle 293-F cells expressing human MC3 receptor, α-MSH maximum = 100%
T2 construct: expressed in transfected cells; host or cells: FreeStyle 293-F cells (transient, electroporation)
Description: as §1, §2, §3, §4, §5, §6, §7

rat MC4 receptor = biological target: T3, rat MC4 receptor (Rattus norvegicus, UniProt P70596); assay: Rat MC4 receptor activation, cAMP production in cells transiently expressing the receptor; details: FreeStyle 293-F cells expressing rat MC4 receptor, α-MSH maximum = 100%
T3 construct: expressed in transfected cells; host or cells: FreeStyle 293-F cells (transient, electroporation)
Description: (1) Construction of Rat MC4 Receptor-Expressing Vector
A rat MC4 receptor gene (GenBank Accession No.: NM_013099.3) was introduced into an expression vector pcDNA™ 3.1N/V5-His TOPO (registered trademark) (Thermo Fisher Scientific Inc.).
(2) Construction of Cells Transiently Expressing Rat MC4 Receptor
as §4, with “rat MC4” for “human MC4, MC1, or MC3”, “Inc.).” for “Inc., product number: R790-07).”, “electroporation buffer” for “Electroporation Buffer”, “Inc.),” for “Inc., product number: B201-100),”, “Inc.),” for “Inc., product number: BLC-1),”
as §5
Measurement was carried out in accordance with the attached instructions, using a LANCE (registered trademark) Ultra cAMP Kit (PerkinElmer, Inc.). That is, after dissolution in DMSO, the test compound (a final concentration of 1 pM to 30 μM) diluted with an assay buffer (Hank's balanced salt solution, 5 mM HEPES, 0.5 mM IBMX, 0.1% bovine serum albumin, pH 7.4), or α-MSH (Bachem Inc., a final concentration of 1 pM to 30 μM) was added to OptiPlate-384 (PerkinElmer, Inc.). Furthermore, the suspension of the cells transiently expressing the rat MC receptor that was prepared using the assay buffer was added thereto at 1,000 cells/well, and then left to stand at room temperature for about 1 hour. Thereafter, an Eu-cAMP tracer solution and an ULight™-anti-cAMP solution were added thereto, and the resulting solution was left to stand at room temperature for about 1 hour. The amount of cAMP was calculated using EnVision (registered trademark) (PerkinElmer Inc).
For the agonistic activity, an efficacy (EC50 (μM)) was calculated by a non-linear regression method with a Sigmoid-Emax model, by defining the maximum reaction using α-MSH as 100% and the reaction using a vehicle alone as 0%, respectively.

T1 sequence (P32245 whole entry): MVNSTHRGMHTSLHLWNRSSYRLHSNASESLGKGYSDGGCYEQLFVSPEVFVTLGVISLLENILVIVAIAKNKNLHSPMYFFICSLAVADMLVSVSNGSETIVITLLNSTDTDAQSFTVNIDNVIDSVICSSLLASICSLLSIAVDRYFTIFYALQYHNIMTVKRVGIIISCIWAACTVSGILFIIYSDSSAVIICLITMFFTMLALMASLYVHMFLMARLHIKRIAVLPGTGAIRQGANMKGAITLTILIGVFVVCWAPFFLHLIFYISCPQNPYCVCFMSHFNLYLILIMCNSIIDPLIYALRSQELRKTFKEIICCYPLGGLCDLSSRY
T2 sequence (P41968 whole entry): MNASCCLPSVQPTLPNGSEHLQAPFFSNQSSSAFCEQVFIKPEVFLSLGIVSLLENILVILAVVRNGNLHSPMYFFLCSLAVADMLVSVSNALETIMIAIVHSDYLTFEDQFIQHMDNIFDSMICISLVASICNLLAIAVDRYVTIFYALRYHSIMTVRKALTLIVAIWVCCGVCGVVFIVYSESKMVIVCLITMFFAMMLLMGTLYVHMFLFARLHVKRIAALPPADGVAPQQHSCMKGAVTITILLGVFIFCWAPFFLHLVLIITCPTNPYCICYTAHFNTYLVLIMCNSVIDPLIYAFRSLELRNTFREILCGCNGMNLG
T3 sequence (P70596 whole entry): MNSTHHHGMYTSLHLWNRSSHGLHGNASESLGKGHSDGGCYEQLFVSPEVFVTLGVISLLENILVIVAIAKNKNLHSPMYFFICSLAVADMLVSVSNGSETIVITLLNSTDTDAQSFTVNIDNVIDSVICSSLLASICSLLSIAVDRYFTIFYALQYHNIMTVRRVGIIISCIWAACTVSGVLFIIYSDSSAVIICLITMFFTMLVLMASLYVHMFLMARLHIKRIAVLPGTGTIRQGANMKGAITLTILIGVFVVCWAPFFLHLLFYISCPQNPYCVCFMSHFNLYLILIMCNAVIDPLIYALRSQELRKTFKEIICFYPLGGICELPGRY

Compound | EC50 (human MC4 receptor) | EC50 (human MC3 receptor) | EC50 (rat MC4 receptor)
CC(=O)N[C@@H](CC(C)C)C(=O)N1CCN(C(=O)[C@@H]2CN(C(C)(C)C)C[C@H]2c2ccc(Cl)cc2F)C[C@H]1C [Example 5] | 6 nM | 550 nM | 3.3 nM
CC(=O)N[C@@H](CC(C)(C)C)C(=O)N1C[C@H](C)N(C(=O)C2CN(C(C)(C)C)CC2c2ccc(F)cc2)C[C@H]1C.Cl (stereo partly drawn) [Example 11] | 11 nM | 890 nM | 10 nM

More lines, in order of falling EC50 (human MC4 receptor), values ahead:

EC50 (human MC4 receptor) | EC50 (human MC3 receptor) | EC50 (rat MC4 receptor) | Compound
19 nM | 1800 nM | 16 nM | CC(=O)N[C@H](C(=O)N1CCN(C(=O)[C@@H]2CN(C(C)(C)C)C[C@H]2c2ccc(F)cc2F)[C@@H](C)C1)C1CCCCC1.Cl [Example 6, N-{(1S)-2-[(3S)-4-{[(3S,4R)-1-tert-butyl-4-(2,4-difluorophenyl)pyrrolidin-3-yl]carbonyl}-3-methylpiperazin-1-yl]-1-cyclohexyl-2-oxoethyl}acetamide monohydrochloride]
10 nM | 1000 nM | 4.7 nM | CC(=O)N[C@@H](CC(C)(C)C)C(=O)N1CCN(C(=O)[C@@H]2CN(C(C)(C)C)C[C@H]2c2ccc(F)cc2F)[C@@H](C)C1.Cl [Example 8]
6.8 nM | 270 nM | 2 nM | CC(=O)N[C@@H](CC(C)(C)C)C(=O)N1C[C@H](C)N(C(=O)[C@@H]2CN(C(C)(C)C)C[C@H]2c2ccc(F)cc2F)C[C@H]1C.Cl [Example 4, N-{(2S)-1-[(2R,5S)-4-{[(3 S,4R)-1-tert-butyl-4-(2,4-difluorophenyl)pyrrolidin-3-yl]carbonyl}-2,5-dimethylpiperazin-1-yl]-4,4-dimethyl-1-oxopentan-2-yl}acetamide monohydrochloride]
